The source made the active and inactive calls. The rule behind the calls is not given here.
Legend:
[1] = target: T1, Tyrosine-protein phosphatase non-receptor type 1 (Homo sapiens, UniProt P18031); test: (§1) Inhibition of recombinant human PTP1B using pNPP as substrate measured after 30 mins
T1 sequence (P18031 whole entry): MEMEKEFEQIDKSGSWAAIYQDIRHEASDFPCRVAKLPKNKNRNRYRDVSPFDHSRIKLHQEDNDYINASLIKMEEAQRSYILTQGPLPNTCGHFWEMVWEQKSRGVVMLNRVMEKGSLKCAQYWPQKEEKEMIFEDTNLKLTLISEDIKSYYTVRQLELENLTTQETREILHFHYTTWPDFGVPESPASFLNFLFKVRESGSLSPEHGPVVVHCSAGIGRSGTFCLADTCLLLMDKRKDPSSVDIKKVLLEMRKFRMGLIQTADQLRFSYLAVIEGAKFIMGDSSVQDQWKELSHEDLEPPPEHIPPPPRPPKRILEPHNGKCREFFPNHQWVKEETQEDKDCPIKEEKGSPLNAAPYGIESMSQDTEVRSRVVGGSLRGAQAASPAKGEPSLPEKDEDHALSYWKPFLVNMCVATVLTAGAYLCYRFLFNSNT

[2] = target: T2, Tyrosine-protein phosphatase non-receptor type 1 (Homo sapiens) (UniProt P18031); test: as §1
T2 sequence (whole entry): T1 sequence (P18031 whole entry)

[3] = Tmax in Sprague-Dawley rat at 2 mg/kg, iv administered as single dose by UPLC/MS/MS analysis; assay type: ADME, organism-based; settings: in vivo
[4] = Tmax in Sprague-Dawley rat at 20 mg/kg, ig administered as single dose by UPLC/MS/MS analysis; assay type: ADME, organism-based; settings: in vivo, po
Mus musculus [5] = test: Protection against hyperglycemia-induced liver injury in db/db mouse assessed as reduction in serum ALT level at 10 to 20 mg/kg, po administered every other day for 10 weeks measured post last dose; assay type: functional, organism-based
Mus musculus [6] = test: Protection against hyperglycemia-induced liver injury in db/db mouse assessed as reduction in size and number of liver lipid droplets at 10 to 20 mg/kg, po administered every other day for 10 weeks measured post last dose by hematoxylin and eosin staining based light microscopic analysis; assay type: functional, organism-based
[7] = AUC (0 to t) in Sprague-Dawley rat at 2 mg/kg, iv administered as single dose by UPLC/MS/MS analysis; assay type: ADME, organism-based; settings: in vivo
[8] = Apparent half-life of the terminal disposition phase in Sprague-Dawley rat at 20 mg/kg, ig administered as single dose by UPLC/MS/MS analysis; assay type: ADME, organism-based; settings: in vivo, po, read-out: t1/2 lambda z (converted)
[9] = Cmax in Sprague-Dawley rat at 20 mg/kg, ig administered as single dose by UPLC/MS/MS analysis; assay type: ADME, organism-based; set-up: dose 20 mg/kg, route […]; settings: in vivo, po
[10] = target: T2, Tyrosine-protein phosphatase non-receptor type 1 (Homo sapiens); test: Inhibition of PTP1B in human HepG2 cells assessed as suppression of PA-induced insulin resistance by measuring increase in IRS1 phosphorylation at 5 uM preincubated for 1 hr followed by PA-stimulation for 24 hrs and subsequent insulin measured by immunoblotting analysis; assay type: cell-based
[11] = Apparent half-life of the terminal disposition phase in Sprague-Dawley rat at 2 mg/kg, iv administered as single dose by UPLC/MS/MS analysis; assay type: ADME, organism-based; settings: in vivo, read-out: t1/2 lambda z (converted)
Mus musculus [12] = test: Protection against hyperglycemia-induced liver injury in db/db mouse assessed as reduction in serum AKP level at 10 to 20 mg/kg, po administered every other day for 10 weeks measured post last dose; assay type: functional, organism-based
[13] = Cmax in Sprague-Dawley rat at 2 mg/kg, iv administered as single dose by UPLC/MS/MS analysis; assay type: ADME, organism-based; set-up: dose 2 mg/kg, route intravenous; settings: in vivo
[14] = AUC (0 to infinity) in Sprague-Dawley rat at 20 mg/kg, ig administered as single dose by UPLC/MS/MS analysis; assay type: ADME, organism-based; set-up: dose 20 mg/kg, time infinity, route […]; settings: in vivo, po
[15] = AUC (0 to infinity) in Sprague-Dawley rat at 2 mg/kg, iv administered as single dose by UPLC/MS/MS analysis; assay type: ADME, organism-based; set-up: dose 2 mg/kg, route intravenous, time infinity; settings: in vivo
[16] = Drug uptake in Sprague-Dawley rat at 20 mg/kg, ig administered as single dose measured after 4 hrs by UPLC/MS/MS analysis; assay type: ADME, organism-based; settings: in vivo, po
Mus musculus [17] = test: Protection against hyperglycemia-induced liver injury in db/db mouse assessed as reduction in steatosis at 10 to 20 mg/kg, po administered every other day for 10 weeks measured post last dose by hematoxylin and eosin staining based light microscopic analysis; assay type: functional, organism-based
Mus musculus [18] = test: Protection against hyperglycemia-induced liver injury in db/db mouse assessed as increase in IRS1 phosphorylation in liver at 10 to 20 mg/kg, po administered every other day for 10 weeks measured post last dose by immunoblotting analysis; assay type: functional, organism-based
[19] = AUC (0 to t) in Sprague-Dawley rat at 20 mg/kg, ig administered as single dose by UPLC/MS/MS analysis; assay type: ADME, organism-based; settings: in vivo, po
[20] = target: T2, Tyrosine-protein phosphatase non-receptor type 1 (Homo sapiens); test: Potency index, ratio of […] IC50 to test compound IC50 for recombinant human PTP1B
[21] = target: T2, Tyrosine-protein phosphatase non-receptor type 1 (Homo sapiens); test: Inhibition of PTP1B in human HepG2 cells assessed as suppression of PA-induced insulin resistance by measuring increase in AKT phosphorylation at 10 uM preincubated for 1 hr followed by PA-stimulation for 24 hrs and subsequent insulin measured by immunoblotting analysis; assay type: cell-based
Mus musculus [22] = test: Protection against hyperglycemia-induced liver injury in db/db mouse assessed as reduction in serum total cholesterol level at 10 to 20 mg/kg, po administered every other day for 10 weeks measured post last dose; assay type: functional, organism-based

SMILES	inhibition [2]	IC50 ([1]; read-out: IC50)	also measured
C=CCc1cc(/C=C/C(=O)c2cccc(O)c2)c(OC)cc1O			IC50 [1]: Not Active
C=CCc1cc(/C=C/C(=O)c2ccc(-n3cccn3)cc2)c(OC)cc1O	Dose-dependent effect	6.3 µM	
C=CCc1cc(/C=C/C(=O)c2ccc(OCC(=O)O)cc2)c(OC)cc1O	Dose-dependent effect	12.6 µM	
C=CCc1cc(/C=C/C(=O)c2ccc(N(CC=C)CC=C)cc2)c(OC)cc1O	Dose-dependent effect	5.9 µM	
C=CCc1cc(/C=C/C(=O)c2cccc(N3CCCCC3)c2)c(OC)cc1O	Dose-dependent effect	7.2 µM	
C=CCc1cc(/C=C/C(=O)c2ccc(OC)cc2O)c(OC)cc1O	Dose-dependent effect	24.8 µM	
C=CCc1cc(/C=C/C(=O)c2ccc(OCCCC(=O)O)cc2)c(OC)cc1O		32.8 µM	
C=CCc1cc(/C=C/C(=O)c2cccc(NS(C)(=O)=O)c2)c(OC)cc1O			IC50 [1]: Not Active
C=CCc1cc(/C=C/C(=O)c2ccc(N3CCCCC3)cc2)c(OC)cc1O	Dose-dependent effect	6.9 µM	
C[C@H]1[C@H](C)CC[C@]2(C(=O)O)CC[C@]3(C)C(=CC[C@@H]4[C@@]5(C)CC[C@H](O)C(C)(C)[C@@H]5CC[C@]43C)[C@H]12	Dose-dependent effect		
C=CCc1cc(/C=C/C(=O)c2ccc(OC)c(CC=C)c2)c(OC)cc1O	Dose-dependent effect	10.9 µM	
C=CCc1cc(/C=C/C(=O)c2ccc(OC)cc2)c(OC)cc1O	Dose-dependent effect	7.4 µM	
C=CCc1cc(/C=C/C(=O)c2ccc(OCC=C(C)C)cc2)c(OC)cc1O	Dose-dependent effect	5.9 µM	
C=CCc1cc(/C=C/C(=O)c2ccc(OCCCC(=O)OCC)cc2)c(OC)cc1O	Dose-dependent effect	25.6 µM	
C=CCc1cc(/C=C/C(=O)c2cccc(OC)c2)c(OC)cc1O	Dose-dependent effect	14.6 µM	
C=CC(C)(C)c1cc(/C=C/C(=O)c2ccc(O)cc2)c(OC)cc1O	Dose-dependent effect		
C=CCc1cc(/C=C/C(=O)c2ccc(O)cc2)c(OC)cc1OC1CCCCO1 (stereo not drawn)	Dose-dependent effect	9.4 µM	
C=CCc1cc(/C=C/C(=O)c2ccc(OC(=O)c3ccc(Br)cc3)cc2)c(OC)cc1O	Dose-dependent effect	6.6 µM	
C=CCc1cc(/C=C/C(=O)c2ccc(O)cc2)c(OC)cc1O	Dose-dependent effect	12.9 µM	
C=CCc1cc(/C=C/C(=O)c2ccc(N3CCOCC3)cc2)c(OC)cc1O	Dose-dependent effect	12.3 µM	
C=CCc1cc(/C=C/C(=O)c2cccc(N(C)C)c2)c(OC(C)C)cc1O	Dose-dependent effect	6.9 µM	
C=CCc1cc(/C=C/C(=O)c2cc3c(cc2N(C)C)OCO3)c(OC)cc1O	Dose-dependent effect	11.8 µM	
C=CCc1cc(/C=C/C(=O)c2ccc(OC)c(CC=C(C)C)c2)c(OC)cc1O	Dose-dependent effect	8.2 µM	
C=CCOc1ccc(C(=O)/C=C/c2cc(CC=C)c(O)cc2OC)c(O)c1	Dose-dependent effect	6.5 µM	
C=CCc1cc(/C=C/C(=O)c2ccccc2N(C)C)c(OC)cc1O	Dose-dependent effect	16.3 µM	
C=CCc1cc(/C=C/C(=O)c2ccc(N(C)C)cc2)c(OC)cc1O	Dose-dependent effect	6.9 µM	
C=CCc1cc(/C=C/C(=O)c2ccccc2N2CCCCC2)c(OC)cc1O	Dose-dependent effect	9.5 µM	
C=CCc1cc(/C=C/C(=O)c2ccc(OCC(=O)OCC)cc2)c(OC)cc1O	Dose-dependent effect	9.4 µM	
C=CCOc1ccc(C(=O)/C=C/c2cc(CC=C)c(OC3CCCCO3)cc2OC)c(O)c1 (stereo not drawn)			IC50 [1]: Not Active

Further compounds by falling IC50 ([1]; read-out: IC50), results first:

inhibition [2]	IC50 ([1]; read-out: IC50)	SMILES	also measured
Dose-dependent effect	5.8 µM	C=CCc1cc(/C=C/C(=O)c2ccc(OCCCCC(=O)O)cc2)c(OC)cc1O	
Dose-dependent effect	5.4 µM	C=CCc1cc(/C=C/C(=O)c2ccc(OC)c(C(C)C(=C)C)c2)c(OC)cc1O (stereo not drawn)	
Dose-dependent effect	5.4 µM	C=CCOc1ccc(C(=O)/C=C/c2cc(CC=C)c(O)cc2OC)cc1	
Dose-dependent effect	5.3 µM	C=CCc1cc(/C=C/C(=O)c2ccc(OCC)cc2)c(OC)cc1O	
Dose-dependent effect	5 µM	C=CCc1cc(/C=C/C(=O)c2ccc(OC(=O)c3ccc(C(C)(C)C)cc3)cc2)c(OC)cc1O	
Dose-dependent effect	5 µM	C=CCc1cc(/C=C/C(=O)c2cccc(N(C)C)c2)c(OCc2ccccc2)cc1O	
Dose-dependent effect	4.7 µM	C=CCc1cc(/C=C/C(=O)c2cccc(N(CC=C)CC=C)c2)c(OC)cc1O	
Dose-dependent effect	4.6 µM	C=CCc1cc(/C=C/C(=O)c2ccc(OC(=O)c3ccccc3)cc2)c(OC)cc1O	
Dose-dependent effect	4 µM	C=C(C)[C@H](C)c1cc(/C=C/C(=O)c2ccc(O)cc2)c(OC)cc1O [LICOCHALCONE E]	
Dose-dependent effect	3.9 µM	C=CCc1cc(/C=C/C(=O)c2ccc(OCCCCC(=O)OCC)cc2)c(OC)cc1O	
Dose-dependent effect	3.9 µM	C=CCOc1ccc(C(=O)/C=C/c2cc(CC=C)c(O)cc2OC)c(OC)c1	
Dose-dependent effect	3 µM	C=CCc1cc(/C=C/C(=O)c2ccc(OCC=C(C)C)cc2O)c(OC)cc1O	
Dose-dependent effect	0.57 µM	C=CCc1cc(/C=C/C(=O)c2cccc(N(C)C)c2)c(OC)cc1O	Tmax [3]: 4.8 min; Tmax [4]: 14 h; Activity (Mus musculus [5]): Active; Activity (Mus musculus [6]): Active; AUC(0-t) [7]: 1430 ng·h/mL; half-life [8]: 8.85 h; Cmax [9]: 46.2 ng/mL; inhibition [10]: Active; half-life [11]: 21.1 h; Activity (Mus musculus [12]): Active; Cmax [13]: 2150 ng/mL; AUC [14]: 605.52 ng·h/mL; AUC(0-inf) [15]: 1620 ng·h/mL; Drug uptake [16]: Active; Activity (Mus musculus [17]): Active; Activity (Mus musculus [18]): Active; AUC(0-t) [19]: 584 ng·h/mL; Ratio IC50 [20]: 6; inhibition [21]: Active; Activity (Mus musculus [22]): Active

Reference: ChEMBL document CHEMBL4422680, “Synthesis, biological evaluation, and molecular docking study of novel allyl-retrochalcones as a new class of protein tyrosine phosphatase 1B inhibitors” (Bioorg Med Chem, 2019)
